Measurements as given in ChEMBL document CHEMBL1136269, “Discovery of a series of (4,5-dihydroimidazol-2-yl)-biphenylamine 5-HT7 agonists” (Bioorg Med Chem Lett, 2003).

Legend:
[1] = target: 5-hydroxytryptamine receptor 7 (Rattus norvegicus, UniProt P32305); test: Inhibition of [3H]-5-CT binding to 5-hydroxytryptamine 7 receptor of rat cortical membranes; format: cell membranes, Membrane
[2] = target: T1, Adrenergic receptor alpha-2 (Rattus norvegicus, UniProt P22086+P19328+P22909); test: Affinity for Alpha-2 adrenergic receptor of rat cortical membranes
T1 sequence (P22086 whole entry): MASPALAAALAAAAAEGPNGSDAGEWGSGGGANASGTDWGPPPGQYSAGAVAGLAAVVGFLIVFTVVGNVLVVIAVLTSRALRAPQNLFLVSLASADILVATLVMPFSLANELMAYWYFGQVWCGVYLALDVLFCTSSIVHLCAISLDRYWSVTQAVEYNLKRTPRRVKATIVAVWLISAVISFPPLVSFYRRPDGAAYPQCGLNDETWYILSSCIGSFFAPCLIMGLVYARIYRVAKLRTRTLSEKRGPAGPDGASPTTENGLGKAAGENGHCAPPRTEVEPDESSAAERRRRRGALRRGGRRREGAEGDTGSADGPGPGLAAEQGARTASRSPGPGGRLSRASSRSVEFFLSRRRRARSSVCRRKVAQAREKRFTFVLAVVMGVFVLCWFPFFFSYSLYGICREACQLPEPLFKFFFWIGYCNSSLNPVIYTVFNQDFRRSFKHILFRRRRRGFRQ
T1 sequence (P19328 whole entry): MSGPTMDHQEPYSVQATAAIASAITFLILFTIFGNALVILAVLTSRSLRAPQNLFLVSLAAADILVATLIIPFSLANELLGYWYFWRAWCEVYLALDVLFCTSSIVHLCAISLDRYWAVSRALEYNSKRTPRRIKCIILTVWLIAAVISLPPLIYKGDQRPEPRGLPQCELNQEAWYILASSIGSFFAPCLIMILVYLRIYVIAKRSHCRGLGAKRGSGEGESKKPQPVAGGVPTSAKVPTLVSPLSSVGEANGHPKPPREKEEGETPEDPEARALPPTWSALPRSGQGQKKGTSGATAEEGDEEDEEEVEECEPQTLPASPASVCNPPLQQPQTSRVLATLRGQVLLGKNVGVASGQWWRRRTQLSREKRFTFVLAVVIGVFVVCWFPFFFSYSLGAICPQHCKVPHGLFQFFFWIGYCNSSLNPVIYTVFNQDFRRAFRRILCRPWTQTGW
T1 sequence (P22909 whole entry): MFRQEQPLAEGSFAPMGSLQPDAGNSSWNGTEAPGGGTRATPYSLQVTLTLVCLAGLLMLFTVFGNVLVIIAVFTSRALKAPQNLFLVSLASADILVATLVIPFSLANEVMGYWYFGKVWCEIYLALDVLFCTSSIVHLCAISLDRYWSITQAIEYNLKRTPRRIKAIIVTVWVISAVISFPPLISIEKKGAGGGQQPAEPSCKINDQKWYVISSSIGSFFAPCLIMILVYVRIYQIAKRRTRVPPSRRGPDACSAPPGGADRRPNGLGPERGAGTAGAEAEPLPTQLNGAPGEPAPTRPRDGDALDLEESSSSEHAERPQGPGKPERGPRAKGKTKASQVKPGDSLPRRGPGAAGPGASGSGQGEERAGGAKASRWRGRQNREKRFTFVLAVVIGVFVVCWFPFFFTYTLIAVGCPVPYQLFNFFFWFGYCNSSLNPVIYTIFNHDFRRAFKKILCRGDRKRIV

[3] = target: T2, Adrenergic receptor alpha-1 (Rattus norvegicus, UniProt P15823+P23944+P43140); test: Affinity for Alpha-1 adrenergic receptor of rat cortical membranes
T2 sequence (P15823 whole entry): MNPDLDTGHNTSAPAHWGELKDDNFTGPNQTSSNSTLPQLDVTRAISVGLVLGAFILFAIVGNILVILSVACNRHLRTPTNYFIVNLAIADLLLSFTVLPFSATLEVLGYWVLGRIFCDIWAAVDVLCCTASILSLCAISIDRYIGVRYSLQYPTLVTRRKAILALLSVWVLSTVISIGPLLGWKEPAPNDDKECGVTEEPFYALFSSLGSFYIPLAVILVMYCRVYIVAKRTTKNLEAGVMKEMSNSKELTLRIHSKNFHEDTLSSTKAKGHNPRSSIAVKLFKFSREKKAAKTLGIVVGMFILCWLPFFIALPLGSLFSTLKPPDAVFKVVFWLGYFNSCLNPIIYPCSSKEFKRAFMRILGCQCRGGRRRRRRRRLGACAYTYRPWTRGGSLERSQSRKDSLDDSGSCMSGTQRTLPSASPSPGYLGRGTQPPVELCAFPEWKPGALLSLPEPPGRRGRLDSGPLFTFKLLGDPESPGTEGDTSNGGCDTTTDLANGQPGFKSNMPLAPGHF
T2 sequence (P23944 whole entry): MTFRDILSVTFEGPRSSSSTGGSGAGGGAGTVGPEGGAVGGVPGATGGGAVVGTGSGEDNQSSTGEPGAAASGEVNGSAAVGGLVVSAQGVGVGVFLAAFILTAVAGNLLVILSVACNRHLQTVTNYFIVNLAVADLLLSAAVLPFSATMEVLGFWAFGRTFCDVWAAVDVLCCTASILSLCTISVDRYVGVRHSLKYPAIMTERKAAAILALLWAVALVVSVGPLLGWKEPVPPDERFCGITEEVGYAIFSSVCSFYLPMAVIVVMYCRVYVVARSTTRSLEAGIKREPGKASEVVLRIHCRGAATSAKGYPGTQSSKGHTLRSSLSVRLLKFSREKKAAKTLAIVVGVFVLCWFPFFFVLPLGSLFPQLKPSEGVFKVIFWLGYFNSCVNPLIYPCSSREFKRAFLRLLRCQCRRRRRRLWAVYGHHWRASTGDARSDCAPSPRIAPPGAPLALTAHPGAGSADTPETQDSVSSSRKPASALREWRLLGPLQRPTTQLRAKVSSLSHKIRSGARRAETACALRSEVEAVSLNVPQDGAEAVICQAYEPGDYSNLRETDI
T2 sequence (P43140 whole entry): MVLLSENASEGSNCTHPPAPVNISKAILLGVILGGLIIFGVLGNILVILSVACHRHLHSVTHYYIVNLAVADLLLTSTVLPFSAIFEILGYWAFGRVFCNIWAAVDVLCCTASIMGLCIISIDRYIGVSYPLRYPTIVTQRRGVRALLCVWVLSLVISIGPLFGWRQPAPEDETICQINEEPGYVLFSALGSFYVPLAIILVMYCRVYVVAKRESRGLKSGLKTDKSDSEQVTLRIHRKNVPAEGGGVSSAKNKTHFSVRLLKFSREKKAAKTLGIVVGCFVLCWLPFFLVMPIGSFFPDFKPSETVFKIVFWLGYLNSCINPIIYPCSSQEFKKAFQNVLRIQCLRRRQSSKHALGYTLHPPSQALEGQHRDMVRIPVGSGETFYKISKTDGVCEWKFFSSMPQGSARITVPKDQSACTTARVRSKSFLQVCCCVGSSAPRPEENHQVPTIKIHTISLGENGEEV

Chain of 5-hydroxytryptamine receptor 7 (P32305 whole entry): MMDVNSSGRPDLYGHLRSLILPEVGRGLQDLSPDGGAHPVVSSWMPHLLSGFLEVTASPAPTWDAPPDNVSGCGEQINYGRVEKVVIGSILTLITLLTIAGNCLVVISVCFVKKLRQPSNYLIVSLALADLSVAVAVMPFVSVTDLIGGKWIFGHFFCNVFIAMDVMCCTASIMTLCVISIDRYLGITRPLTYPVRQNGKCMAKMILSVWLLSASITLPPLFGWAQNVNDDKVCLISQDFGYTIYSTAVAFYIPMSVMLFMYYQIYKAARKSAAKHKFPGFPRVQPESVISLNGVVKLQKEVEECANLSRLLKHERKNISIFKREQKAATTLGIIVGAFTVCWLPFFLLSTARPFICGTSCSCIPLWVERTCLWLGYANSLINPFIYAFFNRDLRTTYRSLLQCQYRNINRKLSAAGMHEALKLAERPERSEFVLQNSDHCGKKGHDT

| SMILES | Ki [1] [nM] | Log Ki [2] | Log Ki [3] |
| --- | --- | --- | --- |
| Cc1c(NC2=NCCN2)cccc1-c1cccc(C(F)(F)F)c1 | 45.7 | -7.1 | -6.59 |
| Cc1c(NC2=NCCN2)cccc1-c1cccc(C#N)c1.Cl | 170 | -7.66 | -7.04 |
| Cc1c(NC2=NCCN2)cccc1-c1cccc(C(C)C)c1 | 182 | -6.96 | -5.92 |
| Cc1c(NC2=NCCN2)cccc1-c1cccnc1 | 257 | -8.29 | -6.59 |
| Cc1c(NC2=NCCN2)cccc1-c1cccc(Cl)c1 | 26.3 | -7.62 | -6.88 |
| COc1ccc(-c2cccc(NC3=NCCN3)c2C)c(OC)c1 | 40.7 | -7.13 | -6.68 |
| Cc1c(NC2=NCCN2)cccc1-c1ccsc1 | 31.6 | -7.96 | -7.16 |

Further lines, results first:

| Ki [1] [nM] | Log Ki [2] | Log Ki [3] | SMILES |
| --- | --- | --- | --- |
| 21.4 | -7.75 | -6.78 | Cc1cccc(-c2cccc(NC3=NCCN3)c2C)c1 |
| 27.5 | -7.59 | -6.58 | COc1ccc(-c2cccc(NC3=NCCN3)c2C)cc1 |
| 28.2 | -7.58 | -6.56 | Cc1c(NC2=NCCN2)cccc1-c1cccc(F)c1 |
| 35.5 | -8 | -7.36 | COc1cccc(-c2cccc(NC3=NCCN3)c2C)c1 |
| 155 | -7.49 | -7.05 | CC(=O)c1cccc(-c2cccc(NC3=NCCN3)c2C)c1.Cl |
| 16.2 | -7.71 | -6.68 | Cc1c(NC2=NCCN2)cccc1-c1ccccc1 |
| 16.6 | -8.21 | -6.99 | Cc1c(NC2=NCCN2)cccc1-c1cccs1 |
